Source: patent US7709507B2 (Allergan, Inc., priority 2006, dated 2010)
Read-outs that look alike come from different tables or passages of the source.

Assays:
Assay type in all cases: cell-based
alpha2C receptor = molecular target: T1, alpha2C receptor (Homo sapiens, UniProt P18825); assay: Receptor Selection and Amplification Technology (RSAT) assay, Alpha 2C; settings: for Alpha 2C IA (intrinsic activity): ratio of maximal effect to that of standard full agonist brimonidine (UK14304)
T1 construct: expressed in transfected cells; host or cells: NIH-3T3 cells
T1 sequence (P18825 1-462): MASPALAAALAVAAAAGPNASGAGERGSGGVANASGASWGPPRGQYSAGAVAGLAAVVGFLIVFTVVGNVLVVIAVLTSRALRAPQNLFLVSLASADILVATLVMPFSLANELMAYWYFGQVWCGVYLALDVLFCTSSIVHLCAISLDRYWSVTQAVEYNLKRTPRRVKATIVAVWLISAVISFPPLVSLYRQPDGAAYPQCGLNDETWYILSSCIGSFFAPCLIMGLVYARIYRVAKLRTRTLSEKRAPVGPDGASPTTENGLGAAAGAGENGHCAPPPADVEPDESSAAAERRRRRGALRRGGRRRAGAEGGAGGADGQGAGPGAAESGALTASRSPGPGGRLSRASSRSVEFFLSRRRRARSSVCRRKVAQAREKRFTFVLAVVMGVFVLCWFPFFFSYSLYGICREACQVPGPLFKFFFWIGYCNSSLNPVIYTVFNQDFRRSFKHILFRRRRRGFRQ
Procedure: (§1) Receptor Selection and Amplification Technology (RSAT) Assay
(§2) The RSAT assay measures a receptor-mediated loss of contact inhibition that results in selective proliferation of receptor-containing cells in a mixed population of confluent cells. The increase in cell number is assessed with an appropriate transfected marker gene such as β-galactosidase, the activity of which can be easily measured in a 96-well format. Receptors that activate the G protein, Gq, elicit this response. Alpha2 receptors, which normally couple to Gi, activate the RSAT response when coexpressed with a hybrid Gq protein that has a Gi receptor recognition domain, called Gq/i5.
(§3) NIH-3T3 cells are plated at a density of 2×10^6 cells in 15 cm dishes and maintained in Dulbecco's modified Eagle's medium supplemented with 10% calf serum. One day later, cells are cotransfected by calcium phosphate precipitation with mammalian expression plasmids encoding p-SV-β-galactosidase (5-10 μg), receptor (1-2 μg) and G protein (1-2 μg). 40 μg salmon sperm DNA may also be included in the transfection mixture. […] Cells are thawed and 100 μl added to 100 μl aliquots of various concentrations of drugs in triplicate in 96-well dishes. Incubations continue 72-96 hr at 37° C. After washing with phosphate-buffered saline, β-galactosidase enzyme activity is determined by adding 200 μl of the chromogenic substrate (consisting of 3.5 mM o-nitrophenyl-β-D-galactopyranoside and 0.5% nonidet P-40 in phosphate buffered saline), incubating overnight at 30° C. and measuring optical density at 420 nm. The absorbance is a measure of enzyme activity, which depends on cell number and reflects a receptor-mediated cell proliferation. The efficacy or intrinsic activity is calculated as a ratio of the maximal effect of the drug to the maximal effect of a standard full agonist for each receptor subtype. Brimonidine, also called UK14304, the chemical structure of which is shown below, is used as the standard agonist for the alpha2A, alpha2B and alpha2C receptors. The EC50 is the concentration at which the drug effect is half of its maximal effect.
(§4) EC50 values are nanomolar. NA stands for “not active” at concentrations less than 10 micromolar. IA stands for “intrinsic activity.”

alpha2B receptor = molecular target: T2, alpha2B receptor (Homo sapiens, UniProt P18089); assay: Receptor Selection and Amplification Technology (RSAT) assay, Alpha 2B; settings: for EC50: transfected NIH-3T3 cells with Gq/i5, not active = at concentrations less than 10 micromolar; for Alpha 2B IA (intrinsic activity): ratio of maximal effect to that of standard full agonist brimonidine (UK14304)
T2 construct: expressed in transfected cells; host or cells: NIH-3T3 cells
T2 sequence (P18089 1-450): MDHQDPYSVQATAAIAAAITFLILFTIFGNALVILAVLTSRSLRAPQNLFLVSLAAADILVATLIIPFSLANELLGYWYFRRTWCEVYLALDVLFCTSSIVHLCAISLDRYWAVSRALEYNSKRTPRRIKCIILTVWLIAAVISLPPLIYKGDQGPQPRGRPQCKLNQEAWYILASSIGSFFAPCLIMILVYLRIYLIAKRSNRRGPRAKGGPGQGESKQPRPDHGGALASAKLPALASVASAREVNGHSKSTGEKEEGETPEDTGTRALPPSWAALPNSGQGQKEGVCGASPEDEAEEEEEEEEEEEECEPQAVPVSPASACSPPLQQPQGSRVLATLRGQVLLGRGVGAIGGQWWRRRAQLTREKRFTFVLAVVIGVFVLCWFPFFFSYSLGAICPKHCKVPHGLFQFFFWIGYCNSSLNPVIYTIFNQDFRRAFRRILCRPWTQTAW
Procedure: as §1, §2
NIH-3T3 cells are plated at a density of 2×10^6 cells in 15 cm dishes and maintained in Dulbecco's modified Eagle's medium supplemented with 10% calf serum. One day later, cells are cotransfected by calcium phosphate precipitation with mammalian expression plasmids encoding p-SV-β-galactosidase (5-10 μg), receptor (1-2 μg) and G protein (1-2 μg). 40 μg salmon sperm DNA may also be included in the transfection mixture. Fresh media is added on the following day and 1-2 days later, cells are harvested and frozen in 50 assay aliquots. Cells are thawed and 100 μl added to 100 μl aliquots of various concentrations of drugs in triplicate in 96-well dishes. Incubations continue 72-96 hr at 37° C. After washing with phosphate-buffered saline, β-galactosidase enzyme activity is determined by adding 200 μl of the chromogenic substrate (consisting of 3.5 mM o-nitrophenyl-β-D-galactopyranoside and 0.5% nonidet P-40 in phosphate buffered saline), incubating overnight at 30° C. and measuring optical density at 420 nm. The absorbance is a measure of enzyme activity, which depends on cell number and reflects a receptor-mediated cell proliferation. The efficacy or intrinsic activity is calculated as a ratio of the maximal effect of the drug to the maximal effect of a standard full agonist for each receptor subtype. Brimonidine, also called UK14304, the chemical structure of which is shown below, is used as the standard agonist for the alpha2A, alpha2B and alpha2C receptors. The EC50 is the concentration at which the drug effect is half of its maximal effect.
The results of the RSAT assay with several exemplary compounds of the invention are disclosed in Table 1 above together with the chemical formulas of these exemplary compounds. EC50 values are nanomolar. NA stands for “not active” at concentrations less than 10 micromolar. IA stands for “intrinsic activity.”

alpha2A receptor = molecular target: T3, alpha2A receptor (Homo sapiens, UniProt P08913); assay: Receptor Selection and Amplification Technology (RSAT) assay, Alpha 2A; settings: for Alpha 2A EC50: RSAT, transfected NIH-3T3 cells with Gq/i5, not active = at concentrations less than 10 micromolar
T3 construct: expressed in transfected cells; host or cells: NIH-3T3 cells
T3 sequence (P08913 1-465): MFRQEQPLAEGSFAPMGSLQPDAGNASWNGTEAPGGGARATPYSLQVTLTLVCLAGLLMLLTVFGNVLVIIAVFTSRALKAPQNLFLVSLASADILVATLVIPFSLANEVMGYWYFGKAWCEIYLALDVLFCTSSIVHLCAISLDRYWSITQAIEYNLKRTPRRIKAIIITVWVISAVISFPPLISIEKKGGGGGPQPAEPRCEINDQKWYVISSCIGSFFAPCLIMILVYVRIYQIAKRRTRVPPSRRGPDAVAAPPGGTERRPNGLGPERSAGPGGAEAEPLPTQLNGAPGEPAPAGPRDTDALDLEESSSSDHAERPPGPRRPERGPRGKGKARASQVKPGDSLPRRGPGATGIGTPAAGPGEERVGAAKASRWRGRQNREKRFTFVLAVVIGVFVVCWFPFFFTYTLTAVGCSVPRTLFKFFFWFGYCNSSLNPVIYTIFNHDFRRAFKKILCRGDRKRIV
Procedure: as §1, §2, §3, §4

[1] = RSAT, transfected NIH-3T3 cells with Gq/i5, not active = at concentrations less than 10 micromolar
[2] = RSAT, transfected NIH-3T3 cells with Gq/i5, not active = at concentrations less than 10 micromolar, read-out: Alpha 2C EC50

Alpha 2C EC50 (alpha2C receptor; [1]) | EC50 (alpha2B receptor; RSAT, read-out: Alpha 2B EC50) | Alpha 2B IA (intrinsic activity) (alpha2B receptor) | Alpha 2A EC50 (alpha2A receptor) | SMILES | EC50 (alpha2C receptor; [2]) | Alpha 2C IA (intrinsic activity) (alpha2C receptor) | EC50 (alpha2C receptor) | EC50 (alpha2B receptor; Alpha 2B EC50, RSAT) | EC50 (alpha2A receptor) | Alpha 2A IA (intrinsic activity) (alpha2A receptor; ratio of maximal effect to that of standard full agonist brimonidine (UK14304))
not active | 84.2 nM | 0.84 | not active | O=C(NCCF)NC(Cc1cccc(F)c1)c1cccc(C(F)(F)F)c1 (stereo not drawn) [1-(2-fluoro-ethyl)-3-[2-(3-fluoro-phenyl)-1-(3-trifluoromethyl-phenyl)-ethyl]-urea] | – | – | – | – | – | –
not active | 1990 nM | 0.41 | not active | O=C(NCCF)NC(Cc1cccc(F)c1)c1cccnc1 (stereo not drawn) [1-(2-fluoro-ethyl)-3-[2-(3-fluoro-phenyl)-1-pyridin-3-yl-ethyl]-urea] | – | – | – | – | – | –
not active | 2780 nM | 0.49 | not active | O=C(NCCF)NC(Cc1ccc(F)cc1)c1cccnc1 (stereo not drawn) [1-(2-fluoro-ethyl)-3-[2-(4-fluoro-phenyl)-1-pyridin-3-yl-ethyl]-urea] | – | – | – | – | – | –
not active | 160 nM | 0.77 | not active | O=C(NCCF)NC(Cc1ccccc1)c1cccc2ccccc12 (stereo not drawn) [1-(2-fluoroethyl)-3-[1-(1-naphthyl)-2-phenylethyl]urea] | – | – | – | – | – | –
not active | 1060 nM | 0.3 | not active | COc1ccc(C(Cc2ccccc2)NC(=O)NCCF)cc1 (stereo not drawn) [1-(2-fluoroethyl)-3-[1-(4-methoxyphenyl)-2-phenylethyl]urea] | – | – | – | – | – | –
not active | 218 nM | 0.53 | not active | Cc1ccc(C(Cc2ccccc2)NC(=O)NCCF)cc1 (stereo not drawn) [1-(2-fluoroethyl)-3-[1-(4-methylphenyl)-2-phenylethyl]urea] | – | – | – | – | – | –
not active | 12.9 nM | 0.96 | not active | O=C(NCCF)NC(Cc1ccccc1F)c1ccccc1 (stereo not drawn) [1-(2-fluoroethyl)-3-[2-(2-fluorophenyl)-1-phenylethyl]urea] | – | – | – | – | – | –
not active | 51.3 nM | 0.93 | not active | O=C(NCCF)NC(Cc1ccc(F)cc1)c1ccccc1 (stereo not drawn) [1-(2-fluoroethyl)-3-[2-(4-fluorophenyl)-1-phenylethyl]urea] | – | – | – | – | – | –
– | 407 nM | 0.64 | not active | O=C(NCCF)NC(Cc1ccccc1)c1ccccc1Cl (stereo not drawn) [1-[1-(2-chlorophenyl)-2-phenylethyl]-3-(2-fluoroethyl)urea] | 700 nM | 0.34 | – | – | – | –
not active | 488 nM | 0.69 | not active | O=C(NCCF)NC(Cc1ccccc1)c1ccc(Cl)c(Cl)c1 (stereo not drawn) [1-[1-(3,4-dichlorophenyl)-2-phenylethyl]-3-(2-fluoroethyl)urea] | – | – | – | – | – | –
not active | 173 nM | 0.86 | not active | O=C(NCCF)NC(Cc1ccccc1)c1cccc(Br)c1 (stereo not drawn) [1-[1-(3-Bromophenyl)-2-phenylethyl]-3-(2-fluoroethyl)urea] | – | – | – | – | – | –
not active | 138 nM | 1.0 | not active | O=C(NCCF)NC(Cc1ccccc1)c1cccc(Cl)c1F (stereo not drawn) [1-[1-(3-chloro-2-fluorophenyl)-2-phenylethyl]-3-(2-fluoroethyl)urea] | – | – | – | – | – | –

SMILES | Alpha 2C EC50 (alpha2C receptor; [1]) | EC50 (alpha2B receptor; RSAT, read-out: Alpha 2B EC50) | Alpha 2B IA (intrinsic activity) (alpha2B receptor) | Alpha 2A EC50 (alpha2A receptor) | EC50 (alpha2C receptor; [2]) | Alpha 2C IA (intrinsic activity) (alpha2C receptor) | EC50 (alpha2C receptor) | EC50 (alpha2B receptor; Alpha 2B EC50, RSAT) | EC50 (alpha2A receptor) | Alpha 2A IA (intrinsic activity) (alpha2A receptor; ratio of maximal effect to that of standard full agonist brimonidine (UK14304))
COc1ccccc1C(Cc1ccccc1)NC(=O)NCCF (stereo not drawn) [1-(2-fluoroethyl)-3-[1-(2-methoxyphenyl)-2-phenylethyl]urea] | – | 51.2 nM | 0.88 | not active | 78.9 nM | 0.42 | – | – | – | –
O=C(NCCF)NC(Cc1ccccc1)c1cccs1 (stereo not drawn) [1-(2-fluoroethyl)-3-[2-phenyl-1-(2-thienyl)ethyl]urea] | – | – | 0.99 | – | – | 0.35 | 119 nM | 28.5 nM | 346 nM | 0.35
